Results published in article PMC12524796, “Discovery of Galloyl–Flavonoid Conjugates as SARS-CoV-2 3CL^pro Inhibitors: Understanding Binding Interactions Through Computational Approaches” (International Journal of Molecular Sciences, 2025).
Read-outs that look alike come from different tables or passages of the source.

What was measured:
[1] = target: T1, SARS-CoV-2 3CL^pro (Severe acute respiratory syndrome coronavirus 2, UniProt P0DTD1); experiment: biochemical; format: biochemical; conditions: for inhibition at 100 µM: read-out: SARS-CoV-2 3CL^pro Inhibition 100 µM (%)
[2] = tested on: 3CL^pro; set-up: method as in PMID 32272481; conditions: read-out: IC50 against 3CL^pro; cited from earlier work
[3] = target: T1, SARS-CoV-2 3CL^pro; set-up: method as in PMID 38277124
[4] = FRET assay, read-out: SARS-CoV-2 3CL^pro Inhibition IC50
[5] = 100 µM compound; values marked footnote 3; cited from earlier work
[6] = read-out: SARS-CoV-2 3CL^pro Inhibition IC50; values marked footnote 3; cited from earlier work
[7] = values marked footnote 3; read-out: SARS-CoV-2 3CL^pro Inhibition IC50; cited from earlier work

Question: Which inhibition at 100 µM [1] does the source give for `COc1cc(OC(=O)c2ccccc2OC(C)=O)c2c(c1)O[C@H](c1ccccc1)CC2=O` [Compound 28, 5-O-(O-acetylsalicyloyl)pinostrobin] here?
Answer: 89.7 ± 5.92%

Question: For `COc1c([N+](=O)[O-])c(O)c2c(c1[N+](=O)[O-])O[C@H](c1ccccc1)CC2=O` [Compound 24, 6,8-dinitropinostrobin], which IC50 [1] is on record?
Answer: > 100 µM

Question: And the inhibition at 100 µM [1]?
Answer: 40 ± 3.27%

Question: Which inhibition at 100 µM ([1]; 100 µM compound, FRET assay) does the source give for `COc1cc(OC(=O)c2cc(O)c(O)c(O)c2)c2c(c1)O[C@H](c1ccccc1)CC2=O` [Compound 31, 5-O-galloylpinostrobin] here?
Answer: > 99%

Question: What about the IC50 [1, 4] of the same compound?
Answer: 7.42 µM

Question: And the “increase of 3CL^pro inhibitory activity compared with the parent compound” value ([1]; versus parent compound)?
Answer: over 23 fold

Question: Which inhibition at 100 µM ([1]; 100 µM compound, FRET assay) does the source give for `O=C(Oc1cc(O)c2c(c1)O[C@H](c1ccccc1)CC2=O)c1cc(O)c(O)c(O)c1` [Compound 36, 7-O-galloylpinocembrin] here?
Answer: > 99%

Question: And the IC50 [1, 4]?
Answer: 7.53 µM

Question: Which inhibition at 100 µM [1] does the source give for `CC(=O)Oc1ccccc1C(=O)Oc1cc(O)c2c(c1)O[C@H](c1ccccc1)CC2=O` [Compound 33, 7-O-(O-acetylsalicyloyl)pinocembrin] here?
Answer: 81.7 ± 0.89%

Question: Which inhibition at 100 µM ([1]; 100 µM compound, FRET assay) does the source give for `C=CC(=O)Oc1cc(OC)cc2oc(-c3ccccc3)cc(=O)c12` [Compound 19, 5-O-acryloyltectochrysin] here?
Answer: 37.2 ± 2.09%

Question: And the IC50 [1, 4]?
Answer: > 100 µM

Question: Which IC50 [2] does the source give for `O=c1c2ccccc2[se]n1-c1ccccc1` [Ebselen] here?
Answer: 670 nM

Question: Which inhibition at 100 µM ([1]; 100 µM compound, FRET assay) does the source give for `COc1cc(O)c2c(c1N)O[C@H](c1ccccc1)CC2=O` [Compound 25, 8-aminopinostrobin] here?
Answer: 38.2 ± 3.74%

Question: And the IC50 [1, 4]?
Answer: > 100 µM

Question: With `COc1cc(O)c2c(=O)cc(-c3ccccc3)oc2c1` [Compound 10, tectochrysin] as the compound, how does the “SARS-CoV-2 3CL^pro Inhibition 100 µM (%)” value [3, 5] read?
Answer: 86.39 ± 0.19 ^3%

Question: And the IC50 [3, 6]?
Answer: 24 µM

Question: Which inhibition at 100 µM [1] does the source give for `C=CC(=O)Oc1c(C)c(OC)c(C(=O)/C=C/c2ccccc2)c(OC(=O)C=C)c1C` [Compound 18, 2′,4′-O-diacryloyl-DMC] here?
Answer: 68 ± 3.77%

Question: For `COc1cc(OC(=O)c2ccccc2)c2c(c1)O[C@H](c1ccccc1)CC2=O` [Compound 27, 5-O-benzoylpinostrobin], which inhibition at 100 µM ([1]; 100 µM compound, FRET assay) is on record?
Answer: 43.4 ± 3.99%

Question: And the IC50 [1, 4]?
Answer: > 100 µM

Question: Which “SARS-CoV-2 3CL^pro Inhibition 100 µM (%)” value [3, 5] does the source give for `COc1cc(O)cc(O)c1C(=O)/C=C/c1ccccc1` [Compound 8, cardamonin] here?
Answer: 85.60 ± 2.44 ^3%

Question: And the IC50 [3, 6]?
Answer: 57.4 µM

Question: Which “inhibitory activity at 100 µM (in words)” value [1] does the source give for `CC(=O)Oc1cc(C(=O)Oc2cc(O)c3c(c2)O[C@H](c2ccccc2)CC3=O)cc(OC(C)=O)c1OC(C)=O` [Compound 35, 7-O-(tri-O-acetylgalloyl)pinocembrin] here?
Answer: moderate inhibitory activity

Question: And the inhibition at 100 µM [1]?
Answer: 73 ± 1.66%

Question: Which inhibition at 100 µM [1] does the source give for `COc1cc2c(c(O)c1[N+](=O)[O-])C(=O)C[C@@H](c1ccccc1)O2` [Compound 23, 6-nitropinostrobin] here?
Answer: 53.5 ± 4.31%

Question: With `COc1cc(O)c2c(c1)O[C@H](c1ccccc1)CC2=O` [Compound 6, pinostrobin] as the compound, how does the “SARS-CoV-2 3CL^pro Inhibition 100 µM (%)” value [3, 5] read?
Answer: 26.44 ± 2.32 ^3%

Question: And the IC50 [3, 6]?
Answer: > 200 µM

Question: Which inhibition at 100 µM ([1]; 100 µM compound, FRET assay) does the source give for `COc1cc(OC(=O)c2cc(O)c(O)c(O)c2)cc(O)c1C(=O)/C=C/c1ccccc1` [Compound 38, 4′-O-galloylcardamonin] here?
Answer: > 99%

Question: And the IC50 [1, 4]?
Answer: 13.3 µM

Question: For `COc1cc(OC(=O)c2cc(OC(C)=O)c(OC(C)=O)c(OC(C)=O)c2)c2c(=O)cc(-c3ccccc3)oc2c1` [Compound 41, 5-O-(tri-O-acetylgalloyl)tectochrysin], which “inhibitory activity at 100 µM (in words)” value [1] is on record?
Answer: moderate inhibitory activity

Question: And the inhibition at 100 µM [1]?
Answer: 72.8 ± 2.43%

Question: Which inhibition at 100 µM [1] does the source give for `C=CC(=O)Oc1cc(O)c2c(c1)O[C@H](c1ccccc1)CC2=O` [Compound 13, 7-O-acryloylpinocembrin] here?
Answer: 79.2 ± 1.52%

Question: With `C=CC(=O)Oc1cc(OC)c(C(=O)/C=C/c2ccccc2)c(OC(=O)C=C)c1` [Compound 17, 2′,4′-O-diacryloylcardamonin] as the compound, how does the inhibition at 100 µM [1] read?
Answer: 76.8 ± 4.85%

Question: Which inhibition at 100 µM ([1]; 100 µM compound, FRET assay) does the source give for `C=CC(=O)Oc1cc(OC(=O)C=C)c2c(=O)cc(-c3ccccc3)oc2c1` [Compound 21, 5,7-O-diacryloylchrysin] here?
Answer: 32.3 ± 4.83%

Question: What about the IC50 [1, 4] of the same compound?
Answer: > 100 µM

Question: Which inhibition at 100 µM [1] does the source give for `C=CC(=O)Oc1cc(O)c(C(=O)/C=C/c2ccccc2)c(OC)c1` [Compound 15, 4′-O-acryloylcardamonin] here?
Answer: 66.6 ± 2.05%

Question: With `O=c1cc(-c2ccccc2)oc2cc(O)cc(O)c12` [Compound 11, chrysin] as the compound, how does the “SARS-CoV-2 3CL^pro Inhibition 100 µM (%)” value [3, 5] read?
Answer: 87.73 ± 0.66 ^3%

Question: And the IC50 [3, 7]?
Answer: 32.8 µM

Question: Which inhibition at 100 µM ([1]; 100 µM compound, FRET assay) does the source give for `COc1cc2c(c(O)c1N)C(=O)C[C@@H](c1ccccc1)O2` [Compound 26, 6-aminopinostrobin] here?
Answer: 14.7 ± 5.85%

Question: And the IC50 [1, 4]?
Answer: > 100 µM

Question: For `COc1cc(OC(=O)c2cc(OC(C)=O)c(OC(C)=O)c(OC(C)=O)c2)c2c(c1)O[C@H](c1ccccc1)CC2=O` [Compound 30, 5-O-(tri-O-acetylgalloyl)pinostrobin], which “inhibitory activity at 100 µM (in words)” value [1] is on record?
Answer: moderate inhibitory activity

Question: And the inhibition at 100 µM [1]?
Answer: 67.1 ± 2.93%

Question: With `COc1cc(C(=O)Oc2cc(O)c3c(c2)O[C@H](c2ccccc2)CC3=O)ccc1OC(C)=O` [Compound 34, 7-O-(O-acetylvanilloyl)pinocembrin] as the compound, how does the inhibition at 100 µM [1] read?
Answer: 83.7 ± 3.37%

Question: For `COc1c(C)c(OC(=O)c2cc(O)c(O)c(O)c2)c(C)c(O)c1C(=O)/C=C/c1ccccc1` [Compound 40, 4′-O-galloyl-DMC], which inhibition at 100 µM ([1]; 100 µM compound, FRET assay) is on record?
Answer: > 99%

Question: And the IC50 [1, 4]?
Answer: 6.85 µM

Question: With `C=CC(=O)Oc1cc(OC(=O)C=C)c2c(c1)O[C@H](c1ccccc1)CC2=O` [Compound 14, 5,7-O-diacryloylpinocembrin] as the compound, how does the inhibition at 100 µM [1] read?
Answer: 76.2 ± 0.97%

Question: Which inhibition at 100 µM [1] does the source give for `COc1cc(OC(=O)c2ccc(OC(C)=O)c(OC)c2)c2c(c1)O[C@H](c1ccccc1)CC2=O` [Compound 29, 5-O-(O-acetylvanilloyl)pinostrobin] here?
Answer: 84.4 ± 3.91%

Question: Which “inhibitory activity at 100 µM (in words)” value [1] does the source give for `COc1c(C)c(OC(=O)c2cc(OC(C)=O)c(OC(C)=O)c(OC(C)=O)c2)c(C)c(O)c1C(=O)/C=C/c1ccccc1` [Compound 39, 4′-O-(tri-O-acetylgalloyl)-DMC] here?
Answer: moderate inhibitory activity

Question: And the inhibition at 100 µM [1]?
Answer: 72 ± 4.27%

Question: For `COc1cc(OC(=O)c2cc(OC(C)=O)c(OC(C)=O)c(OC(C)=O)c2)cc(O)c1C(=O)/C=C/c1ccccc1` [Compound 37, 4′-O-(tri-O-acetylgalloyl)cardamonin], which “inhibitory activity at 100 µM (in words)” value [1] is on record?
Answer: moderate inhibitory activity

Question: And the inhibition at 100 µM [1]?
Answer: 87.2 ± 3.25%

Question: Which IC50 [1] does the source give for `O=C(O)c1cc(O)c(O)c(O)c1` [gallic acid, reference compound] here?
Answer: > 100 µM

Question: What about the inhibition at 100 µM [1] of the same compound?
Answer: 1.72 ± 12.1%

Question: Which “SARS-CoV-2 3CL^pro Inhibition 100 µM (%)” value [3, 5] does the source give for `O=c1cc(-c2ccccc2)oc2cc(O)c(O)c(O)c12` [Compound 1, baicalein, reference compound] here?
Answer: 62.95 ± 3.10 ^3%

Question: For `O=C1C[C@@H](c2ccccc2)Oc2cc(O)cc(O)c21` [Compound 7, pinocembrin], which “SARS-CoV-2 3CL^pro Inhibition 100 µM (%)” value [3, 5] is on record?
Answer: 27.18 ± 2.20 ^3%

Question: What about the IC50 [3, 6] of the same compound?
Answer: > 200 µM

Question: With `O=C(Oc1cc(O)c2c(=O)cc(-c3ccccc3)oc2c1)c1cc(O)c(O)c(O)c1` [Compound 44, 7-O-galloylchrysin] as the compound, how does the inhibition at 100 µM ([1]; 100 µM compound, FRET assay) read?
Answer: > 99%

Question: What about the IC50 [1, 4] of the same compound?
Answer: 9.26 µM

Question: For `C=CC(=O)Oc1cc(O)c2c(=O)cc(-c3ccccc3)oc2c1` [Compound 20, 7-O-acryloylchrysin], which inhibition at 100 µM [1] is on record?
Answer: 84.01 ± 0.82%

Question: With `COc1cc(O)c2c(c1[N+](=O)[O-])O[C@H](c1ccccc1)CC2=O` [Compound 22, 8-nitropinostrobin] as the compound, how does the inhibition at 100 µM [1] read?
Answer: 55 ± 3.96%

Question: For `O=C(Oc1cc(O)c2c(c1)O[C@H](c1ccccc1)CC2=O)c1ccccc1` [Compound 32, 7-O-benzoylpinocembrin], which inhibition at 100 µM [1] is on record?
Answer: 70.8 ± 2.72%

Question: With `COc1cc(OC(=O)c2cc(O)c(O)c(O)c2)c2c(=O)cc(-c3ccccc3)oc2c1` [Compound 42, 5-O-galloyltectochrysin] as the compound, how does the inhibition at 100 µM ([1]; 100 µM compound, FRET assay) read?
Answer: > 99%

Question: And the IC50 [1, 4]?
Answer: 20.6 µM

Question: For `CC(=O)Oc1cc(C(=O)Oc2cc(O)c3c(=O)cc(-c4ccccc4)oc3c2)cc(OC(C)=O)c1OC(C)=O` [Compound 43, 7-O-(tri-O-acetylgalloyl)chrysin], which “inhibitory activity at 100 µM (in words)” value [1] is on record?
Answer: moderate inhibitory activity

Question: What about the inhibition at 100 µM [1] of the same compound?
Answer: 85.75 ± 0.48%

Question: Which inhibition at 100 µM [1] does the source give for `C=CC(=O)Oc1c(C)c(O)c(C(=O)/C=C/c2ccccc2)c(OC)c1C` [Compound 16, 4′-O-acryloyl-DMC] here?
Answer: 52.9 ± 1.17%

Question: What does the source list for `COc1c(C)c(O)c(C)c(O)c1C(=O)/C=C/c1ccccc1` [Compound 9, dimethylcardamonin]?
Answer: SARS-CoV-2 3CL^pro Inhibition 100 µM (%) [3, 5]: 84.59 ± 0.84 ^3%; IC50 [3, 7]: 27.5 µM
